From patent US12116344B2, “Crystalline forms of a pharmaceutical compound” (Azafaros B.V., priority 2020, dated 2024)
≈ marks a conversion by molar mass, not a printed value. Like-named read-outs stand apart in the source and are kept apart here.

How the values were obtained:
Type in all cases: physicochemical
[1] = Approximate solubility by incremental solvent addition with shaking/sonication; conditions: for solubility: thermodynamic from solid, about 25° C., approximate, read-out: Solubility S
Method: Approximate solubilities were determined by incremental addition of solvent to about 10 mg the compound and subsequent shaking and/or sonication for a short period of time. If the substance was not dissolved by addition of a total of at least 10 ml solvent, the solubility is indicated as <1 mg/ml. The experiments were conducted at about 25° C.
Compound (I) was purified using a silica gel column to remove borate esters followed by a short equilibration in acetonitrile (about 1-5 min). Solubility of purified compound (I) in acetonitrile was determined to be between 5 mg/mL and 8 mg/mL. These values were determined by adding small aliquots of solvent to −10 mg of solid compound (I) and shaking/sonicating for a short period of time at room temperature (about 25° C.).

[2] = Dynamic vapour sorption (DVS), hygroscopicity
Method: Dynamic vapour sorption (DVS) measurements were performed with an SPS11-100n “Sorptions Prüfsystem” from ProUmid (formerly “Projekt Messtechnik”), August-Nagel-Str. 23, 89079 Ulm (Germany). About 5 mg to 20 mg of sample was put into an aluminum sample pan. Humidity change rates of 5% per hour were used. The applied measurement program can be described as follows:
The sample was placed on an aluminium or platinum holder on top of a microbalance and allowed to equilibrate at a relative humidity (RH) of 50% before starting the pre-defined humidity programs: • (1) 2 h at 50% RH • (2) 50→0% RH (5%/h); 5 h at 0% RH • (3) 0→95% RH (5%/h); 5 h at 95% RH • (4) 95→0% RH (5%/h); 5 h at 0% RH • (5) 0→95% RH (5%/h); 5 h at 95% RH • (6) 95→50% RH (5%/h); 2 h at 50% RH

[3] = Stability of the crystalline form (transition of Form 2 into Form 3); conditions: Form 2 transitions into Form 3 above around 30° C. in about 1-5 min, or in solvent for more than 5 min at around 25° C.
Method: Alternatively, Form 2 transitioned into Form 3 upon equilibration in solvent (e.g. acetone) for more than 5 min at around 25° C.

solubility ([1]; organic solvent or mixture, 1-Propanol) [mg/mL]	solubility ([1]; organic solvent or mixture, 2-Propanol) [mg/mL]	solubility ([1]; organic solvent or mixture, Acetic acid) [mg/mL]	solubility ([1]; organic solvent or mixture, Acetone) [mg/mL]	solubility ([1]; organic solvent or mixture, Acetonitrile) [mg/mL]	solubility ([1]; organic solvent or mixture, DCM) [mg/mL]	solubility ([1]; organic solvent or mixture, Ethanol) [mg/mL]	solubility ([1]; organic solvent or mixture, Ethyl acetate) [mg/mL]	solubility ([1]; organic solvent or mixture, MEK) [mg/mL]	solubility ([1]; organic solvent or mixture, Methanol) [mg/mL]	solubility ([1]; organic solvent or mixture, THF) [mg/mL]	solubility ([1]; Water) [mg/mL]	Solubility in water ([1]; Form 2 crystalline form, summary Table 3) [mg/mL]	Hygroscopicity (description) [2]	Stability of the crystalline form [3]	SMILES
13 to 15 (≈ 30 to 34.6 mM)	19 to 20 (≈ 43.8 to 46.1 mM)	> 120	55 to 73 (≈ 127 to 168 mM)	5 to 8 (≈ 11.5 to 18.5 mM)	> 160	40 to 53 (≈ 92.3 to 122 mM)	12 to 13 (≈ 27.7 to 30 mM)	40 to 50 (≈ 92.3 to 115 mM)	> 160	> 200	~80 (≈ 185 mM)	–	–	–	OC[C@H]1[C@@H](O)[C@H](O)[C@@H](O)CN1CCCCCOCc1ccc(-c2ccccc2)c(F)c1 [compound (I)]
–	–	–	–	–	–	–	–	–	–	–	–	~80 (≈ 185 mM)	hygroscopic	low stability	OC[C@H]1[C@@H](O)[C@H](O)[C@@H](O)CN1CCCCCOCc1ccc(-c2ccccc2)c(F)c1 [Form 2]
